Where no end group is shown, it is not given here.
How the values were obtained:
[1] = tested on: surface HLA*A02:01 on engineered K562 cells (K+); assay: Flow cytometry peptide exchange / antigen presentation assay on K562 cells; format: cell-based, human; details: 1 uM AF555 N-terminal tagged peptide, 5 uM GL dipeptide, 1 uM brefeldin A, 3 hours, N=4
Description: (K+) that only expresses the HLA*A02:01 allele (see Methods).
To validate ExoGAN at the cellular level, we used engineered K562[53] cells (K+) that only express surface HLA*A02:01. Native K562 cells (K−) and K+ cells were grown in complete 1640-RPMI (Gibco) media and harvested at 1 x 10^6 cells. Based on the method reported by Saini et al.[70], cells were incubated with 1 uM AF555 N-terminal tagged peptides with or without the 5 uM GL dipeptide in 1 uM brefeldin A for 3 hours in a 96 well plate. Total volume was 200 uL per well. Cells were washed 3x and subjected to flow cytometry for HLA*A02:01 affinity.

[2] = tested on: DMF5 TCR on J+ cells; assay: J+ cell immunostimulation by peptide-engineered APC-EVs; format: cell-based, human; details: 2x10^9 particles, 24 hours
Description: We designed EVs derived from K+ cells with ExoGAN-designed peptides to precisely activate J+ cells expressing the melanoma TCR, DMF5.
100 uL of the isolate solution was combined with a 100 uL mastermix solution containing 5 uM GL dipeptide and 1 uM peptide. The 200 uL solution was incubated on a revolver at 4°c for 1.5 hours, following purification by ultrafiltration using a 10k MWCO column into a 30 uL solution. 10 uL was used for zeta potential, nano flow cytometry to assess peptides binding onto HLA-A*02:01 and 10 uL was used to assess CD69 expression and IL-2 secretion from J+ cells. To measure J+ functionality, 2x10^5 J+ cells in 190 uL were added to a 96 round bottom well plate, followed by adding the 10 uL isolate solution. 24 hours later, CD69 was evaluated with flow cytometry

[3] = molecular target: HLA-A*02:01 on engineered K562 cells (K+) and on extracellular vesicles isolated from them (human); assay: nano flow cytometry on extracellular vesicles; EVs isolated from K+ cells incubated with 1 uM AF647-tagged peptide and 5 uM GL dipeptide, ultrafiltered (10k MWCO), stained with an AF488 HLA-A*02:01 antibody; NanoFCM

Row | Molecule | percent peptide binding [3] | further results
1 | CLICMDMVV [Exo_4] |  | peptide presentation on K+ cells (AF555 median fluorescent intensity) [1]: most potent peptide binders
2 | FLIDLAFLI [IEDB, reference compound] |  | peptide presentation on K+ cells (AF555 median fluorescent intensity) [1]: most potent peptide binders
3 | FLIHSRNHD [Exo_1] |  | CD69 median fluorescent intensity of J+ cells ([2]; 2x10^5 J+ cells, flow cytometry, N=4): outperformed MART-1; IL-2 secretion of J+ cells ([2]; J+ cells, ELISA, Dunnett's test corrected one-way ANOVA, p <0.05): significantly more
4 | CLICMDMVV (cysteine pairing not given here; also: AF647-tagged, position not given here) [Exo_4, AF647-tagged] | 100% | 
5 | HHMNMSMSK (also: AF647-tagged, position not given here) [Exo_2, AF647-tagged] | 100% | 
6 | FLIHSRNHD (also: AF647-tagged, position not given here) [Exo_1, AF647-tagged] | 100% | 
7 | AAICTLLYD (also: AF647-tagged, position not given here) [Exo_3, AF647-tagged] | 100% | 

From PMC12270203, “The ExoGAN generative AI framework enables extracellular vesicle-based immunotherapy” (Research Square, 2025)
